20 molecules from patent US10093660B2, “Sulfoximine substituted quinazolines for pharmaceutical compositions” (EVOTEC INTERNATIONAL GMBH, priority 2013, dated 2018) can be followed below.

MNK2a, sequence (Q9HBH9 whole entry): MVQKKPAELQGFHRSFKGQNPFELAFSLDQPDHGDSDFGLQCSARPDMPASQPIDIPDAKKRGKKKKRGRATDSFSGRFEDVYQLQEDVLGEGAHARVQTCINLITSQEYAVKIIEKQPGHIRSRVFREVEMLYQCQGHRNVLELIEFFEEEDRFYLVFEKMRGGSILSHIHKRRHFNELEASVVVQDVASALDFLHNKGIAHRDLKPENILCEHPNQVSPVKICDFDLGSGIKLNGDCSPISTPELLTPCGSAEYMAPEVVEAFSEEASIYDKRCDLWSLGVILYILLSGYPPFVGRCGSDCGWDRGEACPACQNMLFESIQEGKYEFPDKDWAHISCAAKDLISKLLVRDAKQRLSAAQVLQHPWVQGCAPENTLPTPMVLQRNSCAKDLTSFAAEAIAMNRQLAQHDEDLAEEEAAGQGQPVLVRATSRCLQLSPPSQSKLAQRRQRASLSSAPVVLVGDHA

One experiment has as its target MNK2a (Homo sapiens (Human), UniProt Q9HBH9). The experiment in a line: MNK2a in vitro kinase assay (Assay 2), ADP-Glo. Type of experiment: biochemical. The conditions noted are these: assay 2; read-out: MNK2 IC50. The source says:
B. MNK2a In Vitro Kinase Assay (Assay 2)
As to `Cc1cc(N=S(C)(=O)C(C)(C)C)cc2ncnc(Nc3ccc(F)cc3O[C@@H]3COC[C@@H]3O)c12` (mixture of isomers) [Example 2.68], the IC50 was 11 nM. On the same count and under the same terms, in the case of `Cc1cc(N=S(C)(=O)c2cccnc2)cc2ncnc(Nc3ccc(F)cc3O[C@@H]3COC[C@@H]3O)c12` (mixture of isomers) [Example 2.70] it was 10 nM.

Take `Cc1cc(N=S(C)(=O)C(C)C)cc2ncnc(Nc3ccc(F)cc3O[C@@H]3COC[C@@H]3O)c12` (mixture of isomers) [Example 2.71]: the IC50 came to 6 nM. Regarding `Cc1cc(N=S2(=O)CCC(O)CC2)cc2ncnc(Nc3ccc(F)cc3O[C@@H]3COC[C@@H]3O)c12` (mixture of isomers) [Example 2.76], the IC50 is 7 nM. Still for that read-out and setting: in the case of `Cc1cc(N=S2(=O)CCC(C)C2)cc2ncnc(Nc3ccc(F)cc3O[C@@H]3COC[C@@H]3O)c12` (mixture of isomers) [Example 2.83] it was 4 nM; in that of `CC(=O)O[C@@H]1COC[C@@H]1Oc1cc(F)ccc1Nc1ncnc2cc(N=S(C)(C)=O)cc(C)c12` (racemic) [Example 6.9], 7 nM. `COCCO[C@@H]1COC[C@@H]1Oc1cc(F)ccc1Nc1ncnc2cc(N=S(C)(C)=O)cc(C)c12` (racemic) [Example 7.1]: the IC50 worked out at 45 nM. `Cc1cc(N=S(C)(C)=O)cc2ncnc(Nc3ccc(F)cc3O[C@H]3COC[C@H]3OCC3CC3)c12` (racemic) [Example 7.2]: the IC50 was 6 nM. `Cc1cc(N=S(C)(C)=O)cc2ncnc(Nc3ccc(F)cc3O[C@H]3COC[C@H]3OC3COC3)c12` (racemic) [Example 7.3]: the IC50 came to 7 nM.

In the next experiment the target is MNK1a (Homo sapiens (Human), UniProt Q9BUB5). The experiment in a line: MNK1 in vitro kinase assay (Assay 3), Z'-LYTE.
MNK1a, sequence (Q9BUB5 other isoform, or with tags, fused parts or gaps): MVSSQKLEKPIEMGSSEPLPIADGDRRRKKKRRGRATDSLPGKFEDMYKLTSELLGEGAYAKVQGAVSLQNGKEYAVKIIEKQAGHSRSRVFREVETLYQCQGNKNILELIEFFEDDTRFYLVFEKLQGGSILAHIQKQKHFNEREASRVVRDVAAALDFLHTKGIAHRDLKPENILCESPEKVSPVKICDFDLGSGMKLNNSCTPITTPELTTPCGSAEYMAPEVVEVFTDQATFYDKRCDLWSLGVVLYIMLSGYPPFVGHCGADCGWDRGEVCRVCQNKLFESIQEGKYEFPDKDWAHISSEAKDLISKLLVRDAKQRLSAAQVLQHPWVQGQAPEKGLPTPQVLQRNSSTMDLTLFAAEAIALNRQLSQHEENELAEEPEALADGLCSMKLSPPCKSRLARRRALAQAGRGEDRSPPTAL
Conditions: not given
The experiment is classed as biochemical. The text has this: C. MNK1 In Vitro Kinase Assay (Assay 3)
MNK1 Data can be obtained from the MNK1 Z′-LYTE® assay. The MNK1 Z′-LYTE® screening protocol and assay conditions are also described on www.invitrogen.com.
The assay is described as follows:
The Z′-LYTE® biochemical assay employs a fluorescence-based, coupled-enzyme format and is based on the differential sensitivity of phosphorylated and non-phosphorylated peptides to proteolytic cleavage. The peptide substrate is labeled with two fluorophores—one at each end—that make up a FRET pair.
In the primary reaction, the kinase transfers the gamma-phosphate of ATP to a single tyrosine, serine or threonine residue in a synthetic FRET-peptide. In the secondary reaction, a site-specific protease recognizes and cleaves non-phosphorylated FRET-peptides. Phosphorylation of FRET-peptides suppresses cleavage by the Development Reagent. Cleavage disrupts FRET between the donor (i.e., coumarin) and acceptor (i.e., fluorescein) fluorophores on the FRET-peptide, whereas uncleaved, phosphorylated FRET-peptides maintain FRET. A ratiometric method, which calculates the ratio (the Emission Ratio) of donor emission to acceptor emission after excitation of the donor fluorophore at 400 nm, is used to quantitate reaction progress, as shown in the equation below.
The 2×MKNK1 (MNK1) mixture is prepared in 50 mM HEPES pH 7.5, 0.01% BRIJ-35, 10 mM MgCl2, 4 mM MnCl2, 1 mM EGTA, 2 mM DTT.
The Test Compounds are screened in 1% DMSO (final) in the well.
All Peptide/Kinase Mixtures are diluted to a 2× working concentration in the MNK1 Kinase Buffer.
All ATP Solutions are diluted to a 4× working concentration in Kinase Buffer (50 mM HEPES pH 7.5, 0.01% BRIJ-35, 10 mM MgCl2, 1 mM EGTA).
Development Reagent Solution:
The Development Reagent is diluted in Development Buffer
1. 2.5 μL—4× Test Compound
2. 5 μL—2× Peptide/Kinase Mixture
5. 60-minute Kinase Reaction incubation at room temperature
6. 5 μL—Development Reagent Solution
8. 60-minute Development Reaction incubation at room temperature
9. Read on fluorescence plate reader and analyze the data
Control C0%=Average Coumarin emission signal of the 0% Phos. Control F100%=Average Fluorescein emission signal of the 100% Phos. Control F0%=Average Fluorescein emission signal of the 0% Phos. Control Graphing Software
SelectScreen® Kinase Profiling Service uses XLfit from IDBS. […] The activity of MNK proteins can be assayed also by other in vitro kinase assay formats. […] In general, MNK kinase assays can be performed such that a MNK substrate such as a protein or a peptide, which may or may not include modifications as further described below, or others are phosphorylated by MNK proteins having enzymatic activity in vitro. The activity of a candidate agent can then be determined via its ability to decrease the enzymatic activity of the MNK protein. The kinase activity may be detected by change of the chemical, physical or immunological properties of the substrate due to phosphorylation.
On to `Cc1cc(N=S2(=O)CCC2)cc2ncnc(Nc3ccc(F)cc3O[C@H]3COC[C@@H]3O)c12` [Example 2.36], for which the IC50 was 51 nM.

The molecule `Cc1cc(N=S(C)(C)=O)cc2ncnc(Nc3ccc(F)cc3O[C@H]3COC[C@@H]3O)c12` [Example 2.45] registered an IC50 of 92 nM.

The experiment is the same for the next values; noted with them: compound concentration of 1 μM.
Regarding `Cc1cc(N=S(C)(C)=O)cc2ncnc(Nc3ccc(F)cc3O[C@H]3COC[C@@H]3O)c12` [Example 2.45], the “MNK1 % INH” value is 92%.

Still in this experiment, the particulars now being: compound concentration of 1 μM, read-out: MNK1 % INH.
On to `Cc1cc(N=S(C)(=O)C(C)(C)C)cc2ncnc(Nc3ccc(F)cc3O[C@@H]3COC[C@@H]3O)c12` (mixture of isomers) [Example 2.68], for which the inhibition at 1 µM is 94%.

On to `Cc1cc(N=S(C)(=O)c2cccnc2)cc2ncnc(Nc3ccc(F)cc3O[C@@H]3COC[C@@H]3O)c12` (mixture of isomers) [Example 2.70], for which the inhibition at 1 µM was determined as 92%. Same read-out and setting: the value for `Cc1cc(N=S(C)(=O)C(C)C)cc2ncnc(Nc3ccc(F)cc3O[C@@H]3COC[C@@H]3O)c12` (mixture of isomers) [Example 2.71] was 94%; that for `Cc1cc(N=S2(=O)CCC(O)CC2)cc2ncnc(Nc3ccc(F)cc3O[C@@H]3COC[C@@H]3O)c12` (mixture of isomers) [Example 2.76] was 96%; that for `Cc1cc(N=S2(=O)CCC(C)C2)cc2ncnc(Nc3ccc(F)cc3O[C@@H]3COC[C@@H]3O)c12` (mixture of isomers) [Example 2.83] was 97%. Still for that read-out and setting: the value for `CC(=O)O[C@@H]1COC[C@@H]1Oc1cc(F)ccc1Nc1ncnc2cc(N=S(C)(C)=O)cc(C)c12` (racemic) [Example 6.9] was 90%; that for `COCCO[C@@H]1COC[C@@H]1Oc1cc(F)ccc1Nc1ncnc2cc(N=S(C)(C)=O)cc(C)c12` (racemic) [Example 7.1] was 62%; that for `Cc1cc(N=S(C)(C)=O)cc2ncnc(Nc3ccc(F)cc3O[C@H]3COC[C@H]3OCC3CC3)c12` (racemic) [Example 7.2] was 94%. `Cc1cc(N=S(C)(C)=O)cc2ncnc(Nc3ccc(F)cc3O[C@H]3COC[C@H]3OC3COC3)c12` (racemic) [Example 7.3]: the inhibition at 1 µM is 93%.

`Cc1cc(N=S2(=O)CCCC2)cc2ncnc(Nc3cccnc3O[C@@H]3COC[C@@H]3O)c12` (single isomer, unassigned) [Example 14.3]: the inhibition at 1 µM stood at 100%. Same read-out and setting: in the case of `Cc1cc(N=S2(=O)CCCC2)cc2ncnc(Nc3cccnc3O[C@H]3COC[C@H]3O)c12` (single isomer, unassigned) [Example 14.4] it was 103%; in that of `Cc1cc(N=S2(=O)CCCC2)cc2ncnc(Nc3cccnc3O[C@H]3COC[C@@H]3O)c12` [Example 2.24], 99%; in that of `Cc1cc(N=S(C)(C)=O)cc2ncnc(Nc3ccc(F)cc3O[C@H]3COC[C@@H]3O)c12` [Example 2.27], 97%.

Consider `Cc1cc(N=S2(=O)CCC2)cc2ncnc(Nc3ccc(F)cc3O[C@@H]3COC[C@H]3O)c12` [Example 2.47], for which the inhibition at 1 µM was 103%. Take `Cc1cc(N=S2(=O)CCC2)cc2ncnc(Nc3cccnc3O[C@@H]3COC[C@H]3O)c12` [Example 2.49]: the inhibition at 1 µM came out at 94%. Still for that read-out and setting: in the case of `O=S1(=Nc2cc(F)c3c(Nc4ccc(F)cc4O[C@H]4COC[C@@H]4O)ncnc3c2)CCCC1` [Example 2.66] it was 100%; in that of `Cc1cc(N=S(C)(=O)C2CC2)cc2ncnc(Nc3ccc(F)cc3O[C@H]3COC[C@@H]3O)c12` (stereo partly drawn) [Example 2.77], 94%.

As to `Cc1cc(N=S2(=O)CCCC2)cc2ncnc(Nc3ccc(F)cc3O[C@H]3CNC[C@@H]3O)c12` [Example 3.6], the inhibition at 1 µM came to 98%.
